Source: patent publication US20020137929A1, “1 - (3-heterocyclylphenyl) isothiourea, -isourea, -guanidine and -amidine herbicidal agents” (Intellectual Property Department, BASF Aktiengesellschaft, priority 1998, published 2002)

Key:
[1] = test system: SETVI (Foxtail, Green); test: Postemergence herbicidal evaluation; type: in vivo, Setaria viridis; settings: postemergence
Procedure, shortened: (§1)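 Rate range approx. 0.0156–0.500 kg/ha. Foliar application at 40 psi to ~2-week seedlings; surfactant 0.5% TWEEN 20 in 50/50 acetone/water. Evaluation 4–5 wk post-treatment by 0–9 visual injury score, means of replicate tests.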

[2] = test system: ECHCG (Barnyardgrass); test: Postemergence herbicidal evaluation; type: in vivo, Echinochloa crus-galli; settings: postemergence
Procedure, shortened: as §1

[3] = test system: ABUTH (Velvetleaf); test: Preemergence herbicidal evaluation; type: in vivo, Abutilon theophrasti; settings: rated 4-5 weeks after treatment
Procedure, shortened: (§2)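 Sown cups got a single aqueous acetone spray of test compound (roughly 0.0156–0.500 kg/ha) before seedlings emerged. Evaluation, 4–5 weeks on, used a 0–9 visual scale covering plant stand, vigor, size, malformation, chlorosis and general appearance compared with controls.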

[4] = test system: ABUTH (Velvetleaf); test: Postemergence herbicidal evaluation; type: in vivo, Abutilon theophrasti; settings: postemergence
Procedure, shortened: as §1

[5] = test system: ORYSAT (Rice, Tebonnet); test: Postemergence herbicidal evaluation; type: in vivo, Oryza sativa, (L.) Tebonnet; settings: postemergence
Procedure, shortened: as §1

[6] = test system: TRZAWR (Wheat, Winter, cv Riband); test: Preemergence herbicidal evaluation; type: in vivo, Triticum aestivum; settings: rated 4-5 weeks after treatment
Procedure, shortened: as §2

[7] = test system: ECHCG (Barnyardgrass); test: Preemergence herbicidal evaluation; type: in vivo, Echinochloa crus-galli; settings: rated 4-5 weeks after treatment
Procedure, shortened: as §2

[8] = test system: GLXMAW (Soybean, Williams); test: Preemergence herbicidal evaluation; type: in vivo, Glycine max, (L.) Merr. cv Williams; settings: rated 4-5 weeks after treatment
Procedure, shortened: as §2

[9] = test system: IPOHE (Morningglory, Ivyleaf); test: Preemergence herbicidal evaluation; type: in vivo, Ipomoea hederacea; settings: rated 4-5 weeks after treatment
Procedure, shortened: as §2

[10] = test system: ZEAMX (Corn, Field); test: Preemergence herbicidal evaluation; type: in vivo, Zea mays; settings: rated 4-5 weeks after treatment
Procedure, shortened: as §2

[11] = test system: ZEAMX (Corn, Field); test: Postemergence herbicidal evaluation; type: in vivo, Zea mays; settings: postemergence
Procedure, shortened: as §1

[12] = test system: CASOB (Sicklepod); test: Preemergence herbicidal evaluation; type: in vivo, Cassia obtusifolia; settings: rated 4-5 weeks after treatment
Procedure, shortened: as §2

[13] = test system: CHEAL (Lambsquarters, Common); test: Preemergence herbicidal evaluation; type: in vivo, Chenopodium album; settings: rated 4-5 weeks after treatment
Procedure, shortened: as §2

[14] = test system: CHEAL (Lambsquarters, Common); test: Postemergence herbicidal evaluation; type: in vivo, Chenopodium album; settings: postemergence
Procedure, shortened: as §1

[15] = test system: IPOHE (Morningglory, Ivyleaf); test: Postemergence herbicidal evaluation; type: in vivo, Ipomoea hederacea; settings: postemergence
Procedure, shortened: as §1

C#CC(C)N1C(=O)CSC1=Nc1cc(-n2c(=O)cc(C(F)(F)F)n(C)c2=O)c(F)cc1Cl (centres unmarked) [Compound 165, 3-{4-Chloro-2-fluoro-5-{[3-(1-methyl-2-propynyl)-4-oxo-2-thiazolidinylidene]amino}phenyl}-1-methyl-6-(trifluoromethyl)-2,4(1H,3H)-pyrimidinedione]
3.0: herbicidal rating ECHCG ([2]; rate 0.0625 kg/ha) | herbicidal rating ORYSAT ([5]; rate 0.0625 kg/ha) | Preemergence herbicidal rating ECHCG ([7]; 0.1250 kg/ha)
0.0: Preemergence herbicidal rating ABUTH ([3]; 0.0156 kg/ha) | Preemergence herbicidal rating ABUTH ([3]; 0.0313 kg/ha) | Preemergence herbicidal rating ABUTH ([3]; 0.0625 kg/ha) | Preemergence herbicidal rating TRZAWR ([6]; 0.0156 kg/ha) | Preemergence herbicidal rating TRZAWR ([6]; 0.0313 kg/ha) | Preemergence herbicidal rating TRZAWR ([6]; 0.0625 kg/ha) | Preemergence herbicidal rating ECHCG ([7]; 0.0156 kg/ha) | Preemergence herbicidal rating ECHCG ([7]; 0.0313 kg/ha) | Preemergence herbicidal rating ECHCG ([7]; 0.0625 kg/ha) | Preemergence herbicidal rating GLXMAW ([8]; 0.0156 kg/ha) | Preemergence herbicidal rating GLXMAW ([8]; 0.0313 kg/ha) | Preemergence herbicidal rating IPOHE ([9]; 0.0156 kg/ha) | Preemergence herbicidal rating IPOHE ([9]; 0.0313 kg/ha) | Preemergence herbicidal rating ZEAMX ([10]; 0.0156 kg/ha) | Preemergence herbicidal rating ZEAMX ([10]; 0.0313 kg/ha) | Preemergence herbicidal rating CASOB ([12]; 0.0313 kg/ha) | Preemergence herbicidal rating CASOB ([12]; 0.0625 kg/ha)
1.0: Preemergence herbicidal rating TRZAWR ([6]; 0.1250 kg/ha) | Preemergence herbicidal rating ZEAMX ([10]; 0.0625 kg/ha) | Preemergence herbicidal rating ZEAMX ([10]; 0.1250 kg/ha) | Preemergence herbicidal rating CASOB ([12]; 0.1250 kg/ha)
4.0: herbicidal rating ECHCG ([2]; rate 0.0313 kg/ha) | herbicidal rating ORYSAT ([5]; rate 0.1250 kg/ha) | Preemergence herbicidal rating TRZAWR ([6]; 0.5000 kg/ha) | Preemergence herbicidal rating GLXMAW ([8]; 0.0625 kg/ha) | Preemergence herbicidal rating GLXMAW ([8]; 0.1250 kg/ha) | Preemergence herbicidal rating ZEAMX ([10]; 0.2500 kg/ha) | Preemergence herbicidal rating CHEAL ([13]; 0.0156 kg/ha)
6.0: herbicidal rating SETVI ([1]; rate 0.0313 kg/ha) | Preemergence herbicidal rating ECHCG ([7]; 0.2500 kg/ha) | Preemergence herbicidal rating GLXMAW ([8]; 0.5000 kg/ha) | herbicidal rating CHEAL ([14]; rate 0.0313 kg/ha)
5.0: herbicidal rating ECHCG ([2]; rate 0.1250 kg/ha) | Preemergence herbicidal rating GLXMAW ([8]; 0.2500 kg/ha) | herbicidal rating ZEAMX ([11]; rate 0.0313 kg/ha) | herbicidal rating ZEAMX ([11]; rate 0.0625 kg/ha) | herbicidal rating CHEAL ([14]; rate 0.0156 kg/ha)
5.5: herbicidal rating ZEAMX ([11]; rate 0.1250 kg/ha)
9.0: herbicidal rating SETVI ([1]; rate 0.0625 kg/ha) | Preemergence herbicidal rating ABUTH ([3]; 0.1250 kg/ha) | Preemergence herbicidal rating ABUTH ([3]; 0.2500 kg/ha) | Preemergence herbicidal rating ABUTH ([3]; 0.5000 kg/ha) | herbicidal rating ABUTH ([4]; rate 0.0156 kg/ha) | herbicidal rating ABUTH ([4]; rate 0.0313 kg/ha) | herbicidal rating ABUTH ([4]; rate 0.0625 kg/ha) | herbicidal rating ABUTH ([4]; rate 0.1250 kg/ha) | Preemergence herbicidal rating IPOHE ([9]; 0.2500 kg/ha) | Preemergence herbicidal rating IPOHE ([9]; 0.5000 kg/ha) | Preemergence herbicidal rating CHEAL ([13]; 0.0313 kg/ha) | Preemergence herbicidal rating CHEAL ([13]; 0.0625 kg/ha) | Preemergence herbicidal rating CHEAL ([13]; 0.1250 kg/ha) | Preemergence herbicidal rating CHEAL ([13]; 0.2500 kg/ha) | Preemergence herbicidal rating CHEAL ([13]; 0.5000 kg/ha) | herbicidal rating CHEAL ([14]; rate 0.1250 kg/ha) | herbicidal rating IPOHE ([15]; rate 0.0156 kg/ha) | herbicidal rating IPOHE ([15]; rate 0.0313 kg/ha) | herbicidal rating IPOHE ([15]; rate 0.0625 kg/ha) | herbicidal rating IPOHE ([15]; rate 0.1250 kg/ha)
4: herbicidal rating ZEAMX ([11]; rate 0.0156 kg/ha)
2.0: herbicidal rating SETVI ([1]; rate 0.0156 kg/ha) | herbicidal rating ECHCG ([2]; rate 0.0156 kg/ha) | herbicidal rating ORYSAT ([5]; rate 0.0156 kg/ha) | Preemergence herbicidal rating TRZAWR ([6]; 0.2500 kg/ha) | Preemergence herbicidal rating IPOHE ([9]; 0.1250 kg/ha)
7.0: herbicidal rating SETVI ([1]; rate 0.1250 kg/ha) | Preemergence herbicidal rating ECHCG ([7]; 0.5000 kg/ha) | Preemergence herbicidal rating ZEAMX ([10]; 0.5000 kg/ha) | Preemergence herbicidal rating CASOB ([12]; 0.2500 kg/ha) | Preemergence herbicidal rating CASOB ([12]; 0.5000 kg/ha) | herbicidal rating CHEAL ([14]; rate 0.0625 kg/ha)
1.5: herbicidal rating ORYSAT ([5]; rate 0.0313 kg/ha)
